The values that follow come from ChEMBL document CHEMBL1127277, “Synthesis and in vitro cytotoxicity of 1,3-dioxolane-2-(2-ethanamine)-2-methanamine platinum(II) complexes” (Bioorg Med Chem Lett, 1994).

Test [1] deals with L1210. As to the kind of experiment: Ratio of the cytotoxicity against cisplatin resistance L1210 to parent (sensitive) cell lines. Type of test: functional, cell-based.
Test [2] concerns L1210. The test can be described thus: In vitro cytotoxicity against cisplatin resistance L1210 murine leukemia cell line. Type of test: functional, cell-based, Mus musculus.
Test [3] concerns L1210. The test can be described thus: In vitro cytotoxicity against cisplatin sensitive L1210 murine leukemia cell line. Type of test: functional, cell-based, Mus musculus.
A further test deals with PC-9. As to the kind of experiment: Cytotoxicity against human non-small cell lung cancer cell line PC-9 in MTT assay. Type of test: functional, cell-based. Background: Tetrazolium assays rely on reduction of a dye to a coloured formazan, in cell work by metabolically active cells.
A further test relates to PC-14. As to the kind of experiment: Cytotoxicity against human non-small cell lung cancer cell line PC-14 in MTT assay. Format: functional, cell-based.
Another test has as its system SNU1. The test can be described thus: Cytotoxicity against human stomach cancer cell line SNU-1 in MTT assay. Type of test: functional, cell-based.
A further test has as its system SNU-16. As to the kind of experiment: Cytotoxicity against human stomach cancer cell line SNU-16 in MTT assay. Type of test: functional, cell-based.
In the next test the test system is SNU-5. The test can be described thus: Cytotoxicity against human stomach cancer cell line SNU-5 in MTT assay. Format: functional, cell-based.

For CISPLATIN [listing 1 of 2 here], the Ratio in the test with L1210 [1] came to 3.24.
Consider CISPLATIN [listing 2 of 2 here], for which the IC50 with L1210 [2] worked out at 3.27 µM; in the test with L1210 [3], 0.1 µM; with PC-9, 1 µM; in the test with PC-14 it was 1.33 µM; in the test with SNU1 it was 2.67 µM; in the test with SNU-16, 5 µM. Besides, in the test on SNU-5, the IC50 amounted to 1 µM.
As to CARBOPLATIN [listing 1 of 2 here], the IC50 with L1210 [2] was 44.2 µM; with L1210 [3] it was 1.83 µM; with PC-9, 21.8 µM; with PC-14, 15.6 µM; with SNU1 it was 20.1 µM; with SNU-16, 13.7 µM. Besides, the IC50 in the test with SNU-5 was 9.16 µM.
Regarding CARBOPLATIN [listing 2 of 2 here], in the test on L1210 [1], the Ratio came to 24.1.

By IC50 is commonly meant the concentration that gives 50% inhibition.
